We go through four compounds from paper PMC3674150 (Cancer research, 2013).

Like-named read-outs stand apart in the source and are kept apart here.

Data set [1] has as its system K562 cells. Briefly: Apoptosis assay. Type of data set: cell-based, human.
Data set [2] deals with K562 cells.
For data set [3] the following is noted: clinical, cited from earlier work.
The test system of data set [4] is BCR-ABL signaling (pCrkL) in K562 cells.
Data set [5] relates to BCR-ABL signaling (pCrkL, pSTAT5) in K562 cells. To be noted: 500 and 5000 nM for 2 h, FACS.
The subject of data set [6] is BCR-ABL signaling (pSTAT5) in primary CML cells. The experiment in a line: Phosflow FACS analysis of pSTAT5 in primary CML cells. In kind it is cell-based, human. To be noted: 100 nM for 4 h.
A further data set relates to primary CML cells. The experiment in a line: Apoptosis assay in primary CML mononuclear cells after washout. To be noted: primary CML cells (12/209), 4 h at 100 nM.
In data set [7] the test system is K562 cells. The experiment in a line: Detection of inhibitors by LC/MS/MS in cellular and media fractions.
Setting [8] is: 2 h exposure at 10 nM, annexin V at 72 h.
[9] abbreviates: 2 h exposure at 10 nM, standard washout, annexin V at 72 h.
Where [10] appears, read: 2 h exposure at 100 nM, annexin V at 72 h.
Where [11] appears, read: 2 h exposure at 100 nM, standard washout, annexin V at 72 h.
The mark [12] stands for this setting: 100 nM for 2 h, after standard washout.

Consider `Cc1nc(Nc2ncc(C(=O)Nc3c(C)cccc3Cl)s2)cc(N2CCN(CCO)CC2)n1` [dasatinib], for which the figures for the “apoptosis after expanded washout” value in the data set with K562 cells [1] (setting [8]) and with K562 cells [1] (setting [10]) were “background levels of apoptosis” and “moderate reduction in the extent of apoptosis”, respectively. The “apoptosis after standard washout compared to continuous exposure” value is reported as “abolished onset of apoptosis” with K562 cells [1] (setting [9]) and “only slightly diminished the extent of apoptosis” in the data set on K562 cells [1] (setting [11]). Moreover, the “apoptosis (annexin V-positive cells)” value in the data set with K562 cells [1] (continuous exposure at 10 nM or 100 nM) is “substantial onset of apoptosis”. Also, in the data set on K562 cells [2], the “TKI in the media fraction” value is “either not detected or below the lower limit of quantitation”. For the same compound, the plasma half-life in data set [3] (ref 9, 21) was 3 to 5 h; in data set [3] (ref 10, 11), 3 to 5 h. The serum half-life in data set [3] (ref 13) was 3 to 5 h.
With `Cc1cn(-c2cc(NC(=O)c3ccc(C)c(Nc4nccc(-c5cccnc5)n4)c3)cc(C(F)(F)F)c2)cn1` [nilotinib], the “apoptosis after expanded washout” value with K562 cells [1] (2 h exposure at 5000 nM, annexin V at 72 h) is “reduced to background levels”. In the data set on K562 cells [1] (2 h exposure at 5000 nM, standard washout, annexin V at 72 h), the “apoptosis after standard washout” value was “substantial apoptosis”. Further, the “pCrkL signal inhibition at end of exposure” value in data set [4] (2 h exposure at 500 nM) is reported as “near complete pCrkL signal blockade”; in data set [4] (2 h exposure at 5000 nM), “complete interruption”. For the same compound, in data set [5], the “pCrkL after expanded washout” value is given as “pCrkL levels approximating pretreatment levels”. Moreover, the “media level of TKI” value with K562 cells [2] (human, 2 h, 5000 nM) amounted to 25.5 nM.
With `CNC(=O)c1cc(Oc2ccc(NC(=O)Nc3cc(C(C)(C)C)nn3-c3ccc4ncccc4c3)c(F)c2)ccn1` [DCC-2036, rebastinib], the “concentration inducing substantial apoptosis over untreated” value with K562 cells [1] (continuous exposure for 72 h) is 25 to 50 nM. Also, the “TKI in the media fraction” value in the data set with K562 cells [2] is “either not detected or below the lower limit of quantitation”.
As for `Cc1ccc(C(=O)Nc2ccc(CN3CCN(C)CC3)c(C(F)(F)F)c2)cc1C#Cc1cnc2cccnn12` [ponatinib], the “apoptosis after expanded washout” value with K562 cells [1] (setting [8]) was “reduced to background levels”; with K562 cells [1] (setting [10]) it was “unaffected”; in the data set with primary CML cells, “not completely back to baseline”. Also, the results for the “apoptosis after standard washout compared to continuous exposure” value in the data set on K562 cells [1] (setting [9]) and in the data set on K562 cells [1] (setting [11]) were “minimal” and “no reduction in apoptosis”, respectively. In data set [6], the “pSTAT5 at 24 h post expanded washout” value is “approaching but not quite reaching those of untreated cells”. Moreover, the “pSTAT5 at 24 h post standard washout” value in data set [6] is given as “remained inhibited”. Besides, the “pCrkL level after treatment compared to untreated/pretreatment” value in data set [4] (2 h treatment at 10 nM, immunoblot) is recorded as 25-50%. Besides, the “pCrkL level after treatment” value in data set [4] (2 h treatment at 100 nM, immunoblot) is recorded as “essentially undetectable levels”. Besides, the intracellular inhibitor level in the data set on K562 cells [7] (10 nM for 2 h, after expanded washout) turned out to be 0.14 ng/10^6 cells; with K562 cells [7] (10 nM for 2 h, after standard washout) it was 0.24 ng/10^6 cells; in the data set on K562 cells [7] (100 nM for 2 h, after expanded washout) it was 0.87 ng/10^6 cells; in the data set with K562 cells [7] (setting [12]), 2.11 ng/10^6 cells. The “media level of TKI” value with K562 cells [7] (setting [12]) was 6.68 nM.
